Experimental data taken from paper PMC2646200 (Biochemistry, 2008).

Tests used:
PDE8A1 [1] = target: PDE8A1 (Homo sapiens, UniProt O60658); assay: 3H-cAMP hydrolysis assay, IC50; format: biochemical
PDE8A1 [2] = target: PDE8A1 (Homo sapiens, UniProt O60658, Y748F); assay: 3H-cAMP hydrolysis assay, IC50; format: biochemical
purified protein = substrate: [H][C@@]12COP(=O)(O)O[C@@]1([H])[C@@H](O)[C@H](n1cnc3c(=O)[nH]c(N)nc31)O2; assay: purified protein; details: Mn2+ ([…] MnCl2)

PDE8A1 (Homo sapiens, UniProt O60658, Y748F), sequence (O60658 480-820 Y748F): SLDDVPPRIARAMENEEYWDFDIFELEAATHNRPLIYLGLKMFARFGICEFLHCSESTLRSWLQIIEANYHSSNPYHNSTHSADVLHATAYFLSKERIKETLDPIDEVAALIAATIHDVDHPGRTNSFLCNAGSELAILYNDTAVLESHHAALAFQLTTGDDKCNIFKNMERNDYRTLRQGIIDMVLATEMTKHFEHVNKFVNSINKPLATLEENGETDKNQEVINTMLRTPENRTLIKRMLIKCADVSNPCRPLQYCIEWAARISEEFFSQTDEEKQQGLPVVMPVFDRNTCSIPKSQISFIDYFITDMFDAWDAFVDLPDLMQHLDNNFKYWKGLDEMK

OCCN(CCO)c1nc(N2CCCCC2)c2nc(N(CCO)CCO)nc(N3CCCCC3)c2n1 [dipyridamole]
IC50 (PDE8A1 [1]): 6 ± 0.4 µM | IC50 (PDE8A1 [2]): 4.1 ± 0.4 µM

B1: PDE8A1 (Homo sapiens) (protein)
chain: SLDDVPPRIARAMENEEYWDFDIFELEAATHNRPLIYLGLKMFARFGICEFLHCSESTLRSWLQIIEANYHSSNPYHNSTHSADVLHATAYFLSKERIKETLDPIDEVAALIAATIHDVDHPGRTNSFLCNAGSELAILYNDTAVLESHHAALAFQLTTGDDKCNIFKNMERNDYRTLRQGIIDMVLATEMTKHFEHVNKFVNSINKPLATLEENGETDKNQEVINTMLRTPENRTLIKRMLIKCADVSNPCRPLQYCIEWAARISEEYFSQTDEEKQQGLPVVMPVFDRNTCSIPKSQISFIDYFITDMFDAWDAFVDLPDLMQHLDNNFKYWKGLDEMK
Km (purified protein): 1600 ± 100 µM
